Experimental data reported in US11161815B2, “Hydrocarbylsulfonyl-substituted pyridines and their use in the treatment of cancer” (Oblique Therapeutics AB, priority 2017, dated 2021).

Target: gluthathione reductase (GR) (Homo sapiens (Human), UniProt P00390)
Assay: Inhibition of recombinant GR (GSSG assay)
Type: biochemical
Conditions: 2 nM GR, 250 μM NADPH, 15 minutes incubation
Procedure: (§1) Small molecule inhibition of recombinant thioredoxin reductase 1 (TrxR1) and gluthathione reductase (GR) was examined in 96-well plate format. 30 nM TrxR1 was incubated in the presence of 250 μM NADPH, 0.1 mg/ml BSA, and various concentrations of compound (1% DMSO final) in 50 mM Tris (pH 7.5) and 2 mM EDTA buffer for 15 minutes. Following the incubation period, 2 mM DTNB was added to each well and the change in O.D. at 412 nm was followed. Percent activity was determined using DMSO vehicle and no TrxR1 (blank) controls. 2 nM GR was incubated in the presence of 250 μM NADPH, 0.1 mg/ml BSA, and various concentrations of compounds (1% DMSO final) in 50 mM Tris (pH 7.5) and 2 mM EDTA buffer for 15 minutes. Following the incubation period, 1 mM GSSG was added to each well and the change in O.D. at 340 nm was followed. Percent activity was determined using DMSO vehicle and no GR (blank) controls.

Chain of gluthathione reductase (GR) (P00390 44-522): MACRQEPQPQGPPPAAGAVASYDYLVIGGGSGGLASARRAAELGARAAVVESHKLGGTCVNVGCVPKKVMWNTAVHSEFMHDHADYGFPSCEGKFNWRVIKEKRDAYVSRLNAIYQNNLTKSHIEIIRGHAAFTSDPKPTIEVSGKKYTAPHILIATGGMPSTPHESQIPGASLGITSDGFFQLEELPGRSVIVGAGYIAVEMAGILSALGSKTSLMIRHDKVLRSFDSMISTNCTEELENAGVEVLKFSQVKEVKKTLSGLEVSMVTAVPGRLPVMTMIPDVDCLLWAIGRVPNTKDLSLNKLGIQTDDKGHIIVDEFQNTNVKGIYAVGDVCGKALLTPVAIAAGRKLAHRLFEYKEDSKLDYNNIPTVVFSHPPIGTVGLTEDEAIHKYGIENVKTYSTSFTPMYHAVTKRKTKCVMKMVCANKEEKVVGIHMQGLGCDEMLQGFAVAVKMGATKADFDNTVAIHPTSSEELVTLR

Structure (SMILES) | IC50 [µM]
COc1ccc([N+](=O)[O-])c(S(=O)(=O)Cc2ccc(C)cc2)n1 [Example 23, 6-methoxy-2-((4-methylbenzyl)sulfonyl)-3-nitropyridine] | > 100
CCCCCCCCS(=O)(=O)c1nc(OC)ccc1[N+](=O)[O-] [Example 12, 6-methoxy-3-nitro-2-(octylsulfonyl)pyridine] | > 100
COc1ccc([N+](=O)[O-])c(S(=O)(=O)CCOc2ccccc2)n1 [Example 28, 6-methoxy-3-nitro-2-((2-phenoxyethyl)sulfonyl)pyridine] | > 100
CN(C)c1ccc([N+](=O)[O-])c(S(=O)(=O)C2CCCC2)n1 [Example 8, 2-Cyclopentylsulfonyl-6-dimethylamino-3-nitropyridine] | > 100
COc1ccc([N+](=O)[O-])c(S(=O)(=O)CCN2CCCCC2)n1 [Example 18, 6-methoxy-3-nitro-2-((2-(piperidin-1-yl)ethyl)sulfonyl)pyridine] | > 100
COc1ccc([N+](=O)[O-])c(S(=O)(=O)C2CCCC2)n1 [Example 2, 2-Cyclopentylsulfonyl-6-methoxy-3-nitropyridine] | > 100
COc1ccc([N+](=O)[O-])c(S(=O)(=O)Cc2ccco2)n1 [Example 29, 2-((furan-2-ylmethyl)sulfonyl)-6-methoxy-3-nitropyridine] | > 100

The remaining lines, values ahead:

IC50 [µM] | Structure (SMILES)
> 100 | CCCCCCS(=O)(=O)c1nc(N(C)C)ccc1[N+](=O)[O-] [Example 9, 6-Dimethylamino-2-hexylsulfonyl-3-nitropyridine]
> 100 | COc1ccc([N+](=O)[O-])c(S(=O)(=O)Cc2ccccc2Cl)n1 [Example 19, 2-((2-chlorobenzyl)sulfonyl)-6-methoxy-3-nitropyridine]
> 100 | COc1ccc([N+](=O)[O-])c(S(=O)(=O)Cc2ccc(F)cc2)n1 [Example 22, 2-((4-fluorobenzyl)sulfonyl)-6-methoxy-3-nitropyridine]
> 100 | COc1ccc([N+](=O)[O-])c(S(=O)(=O)Cc2ccc(OC(F)(F)F)cc2)n1 [Example 25, 6-methoxy-3-nitro-2-((4-(trifluoromethoxy)benzyl)sulfonyl)pyridine]
> 100 | COc1ccc([N+](=O)[O-])c(S(=O)(=O)Cc2cccc(Cl)c2)n1 [Example 20, 2-((3-chlorobenzyl)sulfonyl)-6-methoxy-3-nitropyridine]
18.1 | O=[N+]([O-])c1ccc(Cl)nc1S(=O)(=O)Cc1ccccc1 [Example 4, 2-Benzylsulfonyl-6-chloro-3-nitropyridine]
8.76 | CCCCCCS(=O)(=O)c1nc(Cl)ccc1[N+](=O)[O-] [Example 6, 6-Chloro-2-(hexylsulfonyl)-3-nitropyridine]
60.5 | O=[N+]([O-])c1ccc(Cl)nc1S(=O)(=O)C1CCCC1 [Example 5, 6-Chloro-2-(cyclopentylsulfonyl)-3-nitropyridine]

Tested on: FaDu cells
Assay: Head and neck cancer cell viability assay (Cell-Quanti Blue)
Type: cell-based
Conditions: Homo sapiens, 72 hrs, 10% FBS media containing 25 nM selenite
Procedure: (§2) FaDu cells were plated 2000 cells/well in 96-well black optical plates in the presence of 10% FBS media containing 25 nM selenite. The following day cells were treated with various concentrations of the compound of Example 1 (0.1% DMSO final) and incubated for 72 hrs. After the incubation Cell-Quanti Blue reagent was added to each well and incubated for additional 3 hrs. Fluorescence was read ex:530 nm/em:590 nm, and percent of viability was determined using DMSO vehicle and no cell (blank) controls.

Structure (SMILES) | IC50 [nM]
CN(C)c1ccc([N+](=O)[O-])c(S(=O)(=O)C2CCCC2)n1 [Example 8, 2-Cyclopentylsulfonyl-6-dimethylamino-3-nitropyridine] | 6970
CN(C)c1ccc([N+](=O)[O-])c(S(=O)(=O)Cc2ccccc2)n1 [Example 7, 2-Benzylsulfonyl-6-dimethylamino-3-nitropyridine] | 2880
COc1ccc([N+](=O)[O-])c(S(=O)(=O)C2CCCC2)n1 [Example 2, 2-Cyclopentylsulfonyl-6-methoxy-3-nitropyridine] | 3650

The remaining lines, values ahead:

IC50 [nM] | Structure (SMILES)
12700 | CCCCCCS(=O)(=O)c1nc(N(C)C)ccc1[N+](=O)[O-] [Example 9, 6-Dimethylamino-2-hexylsulfonyl-3-nitropyridine]
660 | O=[N+]([O-])c1ccc(Cl)nc1S(=O)(=O)Cc1ccccc1 [Example 4, 2-Benzylsulfonyl-6-chloro-3-nitropyridine]
710 | CCCCCCS(=O)(=O)c1nc(Cl)ccc1[N+](=O)[O-] [Example 6, 6-Chloro-2-(hexylsulfonyl)-3-nitropyridine]
1010 | O=[N+]([O-])c1ccc(Cl)nc1S(=O)(=O)C1CCCC1 [Example 5, 6-Chloro-2-(cyclopentylsulfonyl)-3-nitropyridine]

Target: recombinant thioredoxin reductase 1 (TrxR1) (Homo sapiens (Human), UniProt Q16881)
Assay: Inhibition of recombinant TrxR1 (DTNB assay)
Type: biochemical
Conditions: 30 nM TrxR1, 250 μM NADPH, 15 minutes incubation, read-out: TrxR Assay IC50
Procedure: as §1

Chain of recombinant thioredoxin reductase 1 (TrxR1) (Q16881 151-649): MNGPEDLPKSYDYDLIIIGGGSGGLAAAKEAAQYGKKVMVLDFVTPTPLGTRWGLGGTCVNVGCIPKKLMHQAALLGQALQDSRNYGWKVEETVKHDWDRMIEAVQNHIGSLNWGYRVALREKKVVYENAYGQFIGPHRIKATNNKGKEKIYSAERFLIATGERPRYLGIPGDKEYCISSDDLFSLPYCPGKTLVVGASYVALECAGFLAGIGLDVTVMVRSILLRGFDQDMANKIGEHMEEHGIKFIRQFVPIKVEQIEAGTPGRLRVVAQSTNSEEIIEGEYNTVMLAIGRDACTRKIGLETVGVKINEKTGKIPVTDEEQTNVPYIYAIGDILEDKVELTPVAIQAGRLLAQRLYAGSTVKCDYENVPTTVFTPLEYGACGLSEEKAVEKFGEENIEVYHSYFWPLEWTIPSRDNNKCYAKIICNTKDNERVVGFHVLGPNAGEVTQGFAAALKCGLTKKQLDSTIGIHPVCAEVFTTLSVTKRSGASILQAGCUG

Structure (SMILES) | IC50 [nM]
COc1ccc([N+](=O)[O-])c(S(=O)(=O)Cc2ccc(C)cc2)n1 [Example 23, 6-methoxy-2-((4-methylbenzyl)sulfonyl)-3-nitropyridine] | 14.5
CCCCCCCCS(=O)(=O)c1nc(OC)ccc1[N+](=O)[O-] [Example 12, 6-methoxy-3-nitro-2-(octylsulfonyl)pyridine] | 12.3
COc1ccc([N+](=O)[O-])c(S(=O)(=O)CCOc2ccccc2)n1 [Example 28, 6-methoxy-3-nitro-2-((2-phenoxyethyl)sulfonyl)pyridine] | 20.3
CN(C)c1ccc([N+](=O)[O-])c(S(=O)(=O)C2CCCC2)n1 [Example 8, 2-Cyclopentylsulfonyl-6-dimethylamino-3-nitropyridine] | 188
COc1ccc([N+](=O)[O-])c(S(=O)(=O)CCN2CCCCC2)n1 [Example 18, 6-methoxy-3-nitro-2-((2-(piperidin-1-yl)ethyl)sulfonyl)pyridine] | 1.52
COc1ccc([N+](=O)[O-])c(S(=O)(=O)C2CCCC2)n1 [Example 2, 2-Cyclopentylsulfonyl-6-methoxy-3-nitropyridine] | 1030
COc1ccc([N+](=O)[O-])c(S(=O)(=O)Cc2ccco2)n1 [Example 29, 2-((furan-2-ylmethyl)sulfonyl)-6-methoxy-3-nitropyridine] | 6.78

Continued, values first:

IC50 [nM] | Structure (SMILES)
333 | CCCCCCS(=O)(=O)c1nc(N(C)C)ccc1[N+](=O)[O-] [Example 9, 6-Dimethylamino-2-hexylsulfonyl-3-nitropyridine]
7.6 | COc1ccc([N+](=O)[O-])c(S(=O)(=O)Cc2ccccc2Cl)n1 [Example 19, 2-((2-chlorobenzyl)sulfonyl)-6-methoxy-3-nitropyridine]
5.05 | COc1ccc([N+](=O)[O-])c(S(=O)(=O)Cc2ccc(F)cc2)n1 [Example 22, 2-((4-fluorobenzyl)sulfonyl)-6-methoxy-3-nitropyridine]
1.03 | COc1ccc([N+](=O)[O-])c(S(=O)(=O)Cc2ccc(OC(F)(F)F)cc2)n1 [Example 25, 6-methoxy-3-nitro-2-((4-(trifluoromethoxy)benzyl)sulfonyl)pyridine]
7.16 | COc1ccc([N+](=O)[O-])c(S(=O)(=O)Cc2cccc(Cl)c2)n1 [Example 20, 2-((3-chlorobenzyl)sulfonyl)-6-methoxy-3-nitropyridine]
39.2 | O=[N+]([O-])c1ccc(Cl)nc1S(=O)(=O)Cc1ccccc1 [Example 4, 2-Benzylsulfonyl-6-chloro-3-nitropyridine]
56 | CCCCCCS(=O)(=O)c1nc(Cl)ccc1[N+](=O)[O-] [Example 6, 6-Chloro-2-(hexylsulfonyl)-3-nitropyridine]
181 | O=[N+]([O-])c1ccc(Cl)nc1S(=O)(=O)C1CCCC1 [Example 5, 6-Chloro-2-(cyclopentylsulfonyl)-3-nitropyridine]

Tested on: MDA-MB-231 cells
Assay: Breast cancer cell viability assay (Alamar Blue)
Type: cell-based
Conditions: Homo sapiens, 72 hrs, 10% FBS media containing 25 nM selenite
Procedure: as §2, with “MDA-MB-231” for “FaDu”, “compounds” for “the compound of Example 1”, “Alamar” for “Cell-Quanti”

Structure (SMILES) | IC50 [µM]
CCCCCCCCS(=O)(=O)c1nc(OC)ccc1[N+](=O)[O-] [Example 12, 6-methoxy-3-nitro-2-(octylsulfonyl)pyridine] | 4.51
COc1ccc([N+](=O)[O-])c(S(=O)(=O)CCOc2ccccc2)n1 [Example 28, 6-methoxy-3-nitro-2-((2-phenoxyethyl)sulfonyl)pyridine] | 5.24
COc1ccc([N+](=O)[O-])c(S(=O)(=O)Cc2ccco2)n1 [Example 29, 2-((furan-2-ylmethyl)sulfonyl)-6-methoxy-3-nitropyridine] | 4.36

Continued, values first:

IC50 [µM] | Structure (SMILES)
1.8 | COc1ccc([N+](=O)[O-])c(S(=O)(=O)Cc2ccccc2Cl)n1 [Example 19, 2-((2-chlorobenzyl)sulfonyl)-6-methoxy-3-nitropyridine]
1.85 | COc1ccc([N+](=O)[O-])c(S(=O)(=O)Cc2ccc(F)cc2)n1 [Example 22, 2-((4-fluorobenzyl)sulfonyl)-6-methoxy-3-nitropyridine]
3.2 | COc1ccc([N+](=O)[O-])c(S(=O)(=O)Cc2cccc(Cl)c2)n1 [Example 20, 2-((3-chlorobenzyl)sulfonyl)-6-methoxy-3-nitropyridine]
